Experimental data reported in patent US10316017B2, “COT modulators and methods of use thereof” (Gilead Sciences, Inc., priority 2015, dated 2019).
Like-named read-outs stand apart in the source and are kept apart here.

What was measured:
[1] = system: TNFα production in LPS-stimulated human monocytes; test: Cot Monocyte TNFα Cell Based Assay; conditions: Homo sapiens, Monocyte, read-out: EC50 TNF
Outline: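 Human monocytes (5,000 cells/well) pretreated with compound for 1 hour at 37° C (0.5% DMSO), then stimulated with 50 pg/ml LPS for 4 hours. Total TNFα measured by TR-FRET after overnight antibody incubation at room temp, expressed as percent of control between unstimulated and stimulated cells.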

[2] = target: T1, human Cot catalytic domain (30-397 amino acids) (Homo sapiens, UniProt P41279); test: High Throughput Cot Biochemical Assay (KinEASE TR-FRET); conditions: Cot biochemical HTRF (KinEASE TR-FRET) assay; read-out: IC50 HTRF
T1 construct: Purified recombinant human Cot catalytic domain (30-397 amino acids) was purchased from Cama Biosciences; purchased Cama Biosciences (so in the source)
T1 sequence (P41279 30-397): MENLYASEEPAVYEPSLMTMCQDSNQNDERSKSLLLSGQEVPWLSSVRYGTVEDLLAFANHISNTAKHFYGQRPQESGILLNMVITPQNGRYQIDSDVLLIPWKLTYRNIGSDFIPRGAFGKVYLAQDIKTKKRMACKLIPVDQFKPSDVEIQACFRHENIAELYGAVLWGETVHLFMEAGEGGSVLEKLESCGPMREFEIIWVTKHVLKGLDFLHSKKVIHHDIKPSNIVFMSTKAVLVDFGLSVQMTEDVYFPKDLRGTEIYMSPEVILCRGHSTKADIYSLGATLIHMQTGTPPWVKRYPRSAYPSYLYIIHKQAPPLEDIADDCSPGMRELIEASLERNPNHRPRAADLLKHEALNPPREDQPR
Outline: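 Recombinant human Cot catalytic domain (aa 30-397), 5 nM, with 1 μM STK3 peptide and 400 μM ATP in MOPS pH 7.0 buffer with MgOAc, DTT, BSA, NP-40, glycerol, 0.1% DMSO. Phosphorylated XL665-peptide detected by Eu-[…] antibody TR-FRET.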

[3] = TNFα in LPS-stimulated human monocytes

| SMILES | EC50 [1, 3] [nM] | IC50 [2] [nM] | EC50 [1] [nM] |
| --- | --- | --- | --- |
| N#Cc1cnc2c(Cl)cc(N[C@@H](c3ccc(F)cc3)c3cn(C4CC4)nn3)cc2c1Nc1cnc(F)c(Cl)c1 [Example 414, (S)-8-chloro-4-((5-chloro-6-fluoropyridin-3-yl)amino)-6-(((1-cyclopropyl-1H-1,2,3-triazol-4-yl)(4-fluorophenyl)methyl)amino) quinoline-3-carbonitrile] | 140 | 4 |  |
| [2H][C@](Nc1cc(Cl)c2ncc(C#N)c(N[C@H](CC)c3ccccc3)c2c1)(c1ccc(F)cc1)c1c[nH]nn1 [Example 415, 8-chloro-6-(((S)-(4-fluorophenyl)(1H-1,2,3-triazol-4-yl)methyl-d)amino)-4-(((R)-1-phenylpropyl)amino)quinoline-3-carbonitrile] | 409 | 9 |  |
| CC[C@@H](Nc1c(C#N)cnc2c(Cl)cc(N[C@@H](c3ccc(F)cc3)c3cn(C)nn3)cc12)c1ccccc1 [Example 416, 8-chloro-6-(((S)-(4-fluorophenyl)(1-methyl-1H-1,2,3-triazol-4-yl)methyl)amino)-4-(((R)-1-phenylpropyl)amino) quinoline-3-carbonitrile] | 209 | 6 |  |
| N#Cc1cnc2c(Cl)cc(N[C@@H](c3ccc(F)cc3)c3cn(C4(C(F)(F)F)CC4)nn3)cc2c1Nc1cnc(F)c(F)c1 [Example 417, (S)-8-chloro-4-((5,6-difluoropyridin-3-yl)amino)-6-(((4-fluorophenyl)(1-(1-(trifluoromethyl)cyclopropyl)-1H-1,2,3-triazol-4-yl)methyl)amino)quinoline-3-carbonitrile] | 1930 | 74 |  |
| N#Cc1cnc2c(Cl)cc(N[C@@H](c3ccc(F)cc3)c3c[nH]nn3)cc2c1NCc1cccs1 [Example 418, (S)-8-chloro-6-(((4-fluorophenyl)(1H-1,2,3-triazol-4-yl)methyl)amino)-4-((thiophen-2-ylmethyl)amino)quinoline-3-carbonitrile] | 4170 | 361 |  |
| N#Cc1cnc2c(Cl)cc(N[C@@H](c3ccc(F)cc3)c3c[nH]nn3)cc2c1NCc1ccsc1 [Example 419, (S)-8-chloro-6-(((4-fluorophenyl)(1H-1,2,3-triazol-4-yl)methyl)amino)-4-((thiophen-3-ylmethyl)amino)quinoline-3-carbonitrile] | 4300 | 392 |  |
| N#Cc1cnc2c(Cl)cc(N[C@@H](c3ccc(F)cc3)c3c[nH]nn3)cc2c1NCC1CCOC1 (stereo partly drawn) [Example 420, 8-chloro-6-(((S)-(4-fluorophenyl)(1H-1,2,3-triazol-4-yl)methyl)amino)-4-(((tetrahydrofuran-3-yl)methyl)amino)quinoline-3-carbonitrile] | 5160 | 191 |  |
| N#Cc1cnc2c(Cl)cc(N[C@@H](c3ccc(F)cc3)c3c[nH]nn3)cc2c1NCC1COC1 [Example 421, (S)-8-chloro-6-(((4-fluorophenyl)(1H-1,2,3-triazol-4-yl)methyl)amino)-4-((oxetan-3-ylmethyl)amino)quinoline-3-carbonitrile] | > 10000 | 1490 |  |
| N#Cc1cnc2c(Cl)cc(N[C@H](c3c[nH]nn3)c3ccc(F)cc3Cl)cc2c1Nc1cnc(F)c(F)c1 [Example 422, (S)-8-chloro-6-(((2-chloro-4-fluorophenyl)(1H-1,2,3-triazol-4-yl)methyl)amino)-4-((5,6-difluoropyridin-3-yl)amino)quinoline-3-carbonitrile] | 1350 | 48 |  |
| N#Cc1ccc([C@H](Nc2cc(Cl)c3ncc(C#N)c(Nc4cnc(F)c(F)c4)c3c2)c2c[nH]nn2)cc1 [Example 423, (S)-8-chloro-6-(((4-cyanophenyl)(1H-1,2,3-triazol-4-yl)methyl)amino)-4-((5,6-difluoropyridin-3-yl)amino)quinoline-3-carbonitrile] | 1260 | 17 |  |
| N#Cc1cccc([C@H](Nc2cc(Cl)c3ncc(C#N)c(Nc4cnc(F)c(F)c4)c3c2)c2c[nH]nn2)c1 [Example 424, (S)-8-chloro-6-(((3-cyanophenyl)(1H-1,2,3-triazol-4-yl)methyl)amino)-4-((5,6-difluoropyridin-3-yl)amino)quinoline-3-carbonitrile] | 415 | 6 |  |
| N#Cc1cnc2c(Cl)cc(N[C@@H](c3ccc(F)cc3)c3c[nH]nn3)cc2c1Nc1cnc(F)c(Cl)c1 [Example 425, (S)-8-chloro-4-((5-chloro-6-fluoropyridin-3-yl)amino)-6-(((4-fluorophenyl)(1H-1,2,3-triazol-4-yl)methyl)amino)quinoline-3-carbonitrile] | 438 | 10 |  |
| CC[C@@H](Nc1c(C#N)cnc2c(Cl)cc(N[C@H](c3cnn(C(F)F)n3)c3cccc(F)c3F)cc12)c1ccccc1 [Example 426, 8-chloro-6-(((S)-(2-(difluoromethyl)-2H-1,2,3-triazol-4-yl)(2,3-difluorophenyl)methyl)amino)-4-(((R)-1-phenylpropyl)amino) quinoline-3-carbonitrile] | > 10000 | 3150 |  |
| CC[C@@H](Nc1c(C#N)cnc2c(Cl)cc(N[C@@H](c3cccc(F)c3F)c3cnnn3C(F)F)cc12)c1ccccc1 [Example 427, 8-chloro-6-(((S)-(1-(difluoromethyl)-1H-1,2,3-triazol-5-yl)(2,3-difluorophenyl)methyl)amino)-4-(((R)-1-phenylpropyl)amino) quinoline-3-carbonitrile] | 8880 | 316 |  |
| CC[C@@H](Nc1c(C#N)cnc2c(Cl)cc(N[C@H](c3cn(C(F)F)nn3)c3cccc(F)c3F)cc12)c1ccccc1 [Example 428, 8-chloro-6-(((S)-(1-(difluoromethyl)-1H-1,2,3-triazol-4-yl)(2,3-difluorophenyl)methyl)amino)-4-(((R)-1-phenylpropyl)amino) quinoline-3-carbonitrile] | 1830 | 87 |  |
| CC[C@@H](Nc1c(C#N)cnc2c(Cl)cc(N[C@H](c3cn(C4CC4)nn3)c3ccccc3F)cc12)c1ccccc1 [Example 429, 8-chloro-6-(((S)-(1-cyclopropyl-1H-1,2,3-triazol-4-yl)(2-fluorophenyl)methyl)amino)-4-(((R)-1-phenylpropyl)amino)quinoline-3-carbonitrile] | 257 | 9 |  |
| N#Cc1cnc2c(Cl)cc(N[C@H](c3cn(C4CC4)nn3)c3ccccc3F)cc2c1Nc1cnc(F)c(F)c1 [Example 430, (S)-8-chloro-6-(((1-cyclopropyl-1H-1,2,3-triazol-4-yl)(2-fluorophenyl)methyl)amino)-4-((5,6-difluoropyridin-3-yl)amino)quinoline-3-carbonitrile] | 679 | 7 |  |
| C[Si](C)(C)Cn1cc([C@@H](Nc2cc(Cl)c3ncc(C#N)c(Nc4cnc(F)c(F)c4)c3c2)c2ccccc2F)nn1 [Example 431, (S)-8-chloro-4-((5,6-difluoropyridin-3-yl)amino)-6-(((2-fluorophenyl)(1-((trimethylsilyl)methyl)-1H-1,2,3-triazol-4-yl)methyl)amino)quinoline-3-carbonitrile] |  | 96 | 3280 |
| N#Cc1cnc2c(Cl)cc(N[C@@H](c3ccc(F)cc3)c3c[nH]nn3)cc2c1N[C@@H](CCO)c1ccccc1 [Example 432, 8-chloro-6-(((S)-(4-fluorophenyl)(1H-1,2,3-triazol-4-yl)methyl)amino)-4-(((S)-3-hydroxy-1-phenylpropyl)amino)quinoline-3-carbonitrile] | 3930 | 624 |  |
| N#Cc1cnc2c(Cl)cc(N[C@@H](c3ccc(F)cc3)c3c[nH]nn3)cc2c1N[C@H](CO)c1ccccc1 [Example 433, 8-chloro-6-(((S)-(4-fluorophenyl)(1H-1,2,3-triazol-4-yl)methyl)amino)-4-(((S)-2-hydroxy-1-phenylethyl)amino)quinoline-3-carbonitrile] | 1380 | 31 |  |
| CC[C@@H](Nc1c(C#N)cnc2c(Cl)cc(NC(c3ccc(F)cc3)c3nn[nH]c3OC)cc12)c1ccccc1 (stereo partly drawn) [Example 434, 8-chloro-6-(((4-fluorophenyl)(5-methoxy-1H-1,2,3-triazol-4-yl)methyl)amino)-4-(((R)-1-phenylpropyl)amino)quinoline-3-carbonitrile] | 2380 | 2760 |  |
| COc1[nH]nnc1C(Nc1cc(Cl)c2ncc(C#N)c(Nc3cnc(F)c(F)c3)c2c1)c1ccc(F)cc1 (stereo not drawn) [Example 435, 8-chloro-4-((5,6-difluoropyridin-3-yl)amino)-6-(((4-fluorophenyl)(5-methoxy-1H-1,2,3-triazol-4-yl)methyl)amino)quinoline-3-carbonitrile] | > 10000 | 7930 |  |
| N#Cc1cnc2c(Cl)cc(N[C@@H](c3ccc(F)cc3)c3c[nH]nn3)cc2c1NCC1CCCCO1 (stereo partly drawn) [Example 436, 8-chloro-6-(((S)-(4-fluorophenyl)(1H-1,2,3-triazol-4-yl)methyl)amino)-4-(((tetrahydro-2H-pyran-2-yl)methyl)amino)quinoline-3-carbonitrile] | 3030 | 1360 |  |
| CC(C)(C)N1CCC(n2cc([C@@H](Nc3cc(Cl)c4ncc(C#N)c(NCC5CCCCO5)c4c3)c3ccc(F)cc3)nn2)CC1 (stereo partly drawn) [Example 437, 6-(((S)-(1-(1-(tert-butyl)piperidin-4-yl)-1H-1,2,3-triazol-4-yl)(4-fluorophenyl)methyl)amino)-8-chloro-4-(((tetrahydro-2H-pyran-2-yl)methyl)amino)quinoline-3-carbonitrile] | 3910 | 448 |  |
